# Test results published in the pKa sets of Baltruschat and Czodrowski (2020).
# Conditions: acidic group
row,pKa,Compound
1,3.84,O=C(O)c1ccccc1CO
2,7.01,Oc1nsc2ccccc12
3,3.38,O=C(O)CS
4,6.5,[O-]c1cc(O)cc[nH+]1
5,4.21,[NH3+]CCCCCCC#CC#CCCC(=O)O
6,5.96,O=c1ccccc(Br)c1O
7,12.4,N[C@@H](Cc1nc[nH]c1I)C(=O)[O-]
8,3.09,CC(=O)CC(=O)O
9,8.83,Oc1cc(O)cc(O)c1
10,5.14,CC/C(C)=C/C(=O)O
11,9.45,O=S(=O)([O-])c1c(O)ccc2cn[nH]c12
12,8.97,C[NH+](C)CCCCCCCCNC(=O)/C=N/O
13,6.12,O=C(O)c1ccccc1/N=C/C=C/c1ccccc1
14,2.85,Oc1cc[nH+]c2cccnc12
15,3.38,O=C(O)C1CC[NH2+]C1 (stereo not drawn)
16,5.81,N#Cc1ccc2c(c1)C([P+](c1ccccc1)(c1ccccc1)c1ccccc1)c1ccccc1-2 (stereo not drawn)
17,6.1,Cc1cc(=O)oc2cc(O)c(Cl)cc12
18,8.7,CC1(C)CCC(=O)N1O
19,8.24,COC(=O)CC(=O)c1ccncc1
20,3.79,CCc1ccccc1C(=O)O
21,8.82,CCCc1ncnc2c(O)cccc12
22,8.85,Oc1ccc2cccnc2c1
23,8,O=c1[nH]cc(SSc2c[nH]c(=O)[nH]c2=O)c(=O)[nH]1
24,10.8,Nc1nc(N)c2[nH]cnc2n1
25,0.31,Oc1ccc2ccccc2[nH+]1
26,10.1,CC(S)C(=O)[O-] (stereo not drawn)
27,4.42,O=C(O)c1ccc(C2CC2)cc1
28,4.29,O=C(O)/C=C/c1ccco1

row,pKa,Compound
1,1.58,O=C(O)[C@@H]1CSC[NH2+]1
2,2.17,O=C(C1=C(O)C(=O)c2ccccc2C1=O)c1ccccc1
3,4.23,NC(=O)C(CC(=O)O)c1ccccc1 (stereo not drawn)
4,11.6,[O-]c1ccc(O)cc1
5,8.01,O=C(c1ccccc1)c1ccc(O)cc1
6,10.8,CCN(CC)Cc1ccccc1O
7,9.96,S=C(Nc1ccc(Br)cc1)c1cccc(Br)c1
8,7.62,O=C1COCC(=O)C1=O
9,3.53,CC(C[NH3+])C(=O)O (stereo not drawn)
10,10.8,Cc1cc(C)c(C(C)C)cc1O
11,4.64,CCOc1ccc(C(=O)O)cc1
12,12.3,NC(=S)Nc1ccc(Cl)cc1
13,6.91,O=[N+]([O-])c1cccc(NS(=O)(=O)c2ccccc2)c1
14,1.34,CC(=O)C1C(=O)OC(=O)C=C1C (stereo not drawn)
15,12.1,COCC(=O)NN
16,7.51,Oc1c(Cl)cc(Cl)c2cccnc12
17,9.04,NS(=O)(=O)c1cccc(Cl)c1
18,10.8,CCc1cc(C(C)C)ccc1O
19,11.2,CN(C)c1ccc(C(=S)Nc2ccccc2)cc1
20,5.1,CS(=O)(=O)NC(N)=O
21,3.51,CCOc1cccc(C)c1C(=O)O
22,9.93,Nc1ncc2[nH]cnc2n1
23,10.8,Cc1cc(O)c(C(C)C)cc1C
24,9.83,ONc1ccc(O)cc1
25,4.28,NC1=NS(=O)(=O)Nc2nc[nH]c21
26,6,O=C1[C@H]2CCCC[C@H]2C(=O)N1O
27,12.8,CCCCCCP(=O)(CCCCCC)CCCCCC

row,Compound,pKa
1,O=[N+]([O-])c1ccccc1O,7.15
2,COc1nc([N+](=O)[O-])n[nH]1,5.35
3,O=C1COC(=O)C1Cl (stereo not drawn),2.13
4,O=Nc1ccc(O)cc1,6.2

# Same assay, conditions: basic group
row,pKa,Compound
1,4.44,CC(=O)Nc1cccnc1
2,1.44,Nc1nnnn1Cc1ccccc1
3,8.62,N[C@@H](Cc1nc[nH]c1I)C(=O)[O-]
4,9.23,CC(CN1CCCC(C)(C)C1)Nc1ccccn1 (stereo not drawn)
5,11.8,[O-]c1ccc(Cl)cc1CN1CCCCC1
6,9.48,NCCC(=O)NC(Cc1c[nH]cn1)C(=O)[O-] (stereo not drawn)
7,4.1,Cc1ccnnc1C
8,0.59,Cc1ccnc(NS(=O)(=O)c2ccccc2)n1
9,7.06,N/C(=N\O)C(N)Cc1ccccc1 (stereo not drawn)
10,9.82,CN(C)CCCC(=O)Oc1cccc([N+](=O)[O-])c1
11,0.26,CSc1cnc2ccccc2n1
12,9.87,Oc1ccccc1CN1CCCNCCCNCCC1
13,9,CC(N)(C(=O)[O-])c1ccccc1 (stereo not drawn)
14,10.5,[O-]c1cccnn1
15,10.9,CCN(CC)Cc1cccc(C)c1[O-]
16,10.3,CC1CCCCN1C (stereo not drawn)
17,5.07,Cc1ccccc1NC1CCCC1
18,8.95,NC(Cc1n[nH]c2ccccc12)C(=O)[O-] (stereo not drawn)
19,5.48,Oc1ccc2cccnc2c1
20,7.15,CC(C)(C)Nc1ccccc1
21,5.97,CSc1ccncc1
22,10.3,CC1=CSC2=NCCCN12

row,pKa,Compound
1,11.9,NC[C@@H](O)[C@H]1NC(N)=N[C@@H]1C(=O)[O-]
2,5.05,Nc1nc(N)c2[nH]cnc2n1
3,6.25,CCC[C@H]1NC(C(=O)[O-])CS1 (stereo partly drawn)
4,8.83,CCCSCCN(CC)CC
5,9.8,CN(C)CCOCCN(C)C
6,9.64,O=C([O-])[C@@H]1C[C@@H](O)CN1
7,9.27,CN(CCCN)CCC[NH3+]
8,10.9,CN(C)CC[N-]S(=O)(=O)c1cccc2c(N(C)C)cccc12
9,3.17,COc1ccc2ccccc2n1
10,8.5,CCCCCCN(CC(C)O)CC(C)O (stereo not drawn)
11,9.07,C[C@H](CCCNCc1ccccc1)[C@H]1CC[C@H]2[C@@H]3[C@H](O)C[C@@H]4C[C@H](O)CC[C@]4(C)[C@H]3CC[C@]12C
12,8.72,CC(C)N(C)/C=N/c1ccc(-c2c[nH]cn2)cc1
13,6.65,Nc1ccc2cccnc2c1
14,0.5,Cn1ccnc1-c1[nH+]ccn1C
15,8.81,CCN(CC)Cc1ccccc1O
16,8.52,C(=C\C=N\c1ccccc1)/C=C/Nc1ccccc1
17,10,CCCCC1CCCN1C (stereo not drawn)
18,10,C1CNCCSCCN1
19,6.45,COc1ccnc2c1ccc1c(OC)ccnc12
20,8.24,Cc1ccc(CN2CC(O[Si](C)(C)C)C2)cc1
21,6.12,C1CCN(CC[NH+]2CCCCC2)CC1
22,9.77,Cc1cc(C)c(CN)cc1N

row,pKa,Compound
1,9.12,CCN1CCC[C@@H]1CNC(=O)c1c(OC)ccc([N+](=O)[O-])c1[O-]
2,3.2,COc1nc(N)c2ncn([C@H]3O[C@@H](CO)[C@H](O)[C@@H]3O)c2n1
3,-1.71,CS(=O)C(C)(C)C (stereo not drawn)
4,6.77,[NH3+]CC(=O)N[C@@H](Cc1c[nH]cn1)C(=O)[O-]
5,2.89,Oc1c(Cl)cc(Cl)c2cccnc12
6,7.14,CCN(CC)NC
7,8.19,NCC(O)C[NH3+]
8,9.11,Cn1cnc2c([O-])ncnc21
9,0.72,Clc1ccccn1
10,6.28,CO/N=C(\C)CC(C)(C)NCC[NH2+]C(C)(C)C/C(C)=N/O
11,10.6,CC(C)[C@H]1CC[C@H](C)C[C@@H]1N
12,3.8,Nc1ncc2[nH]cnc2n1
13,9.8,CCN(CC)CC(O)CN(CC)CC
14,3.63,CC[NH+](CC)CCCC(C)Nc1cc(OC)cc2cccnc12 (stereo not drawn)
15,3.31,[SH2+]c1cccc2ncccc12
16,4.75,CSc1ccc2ncccc2c1
17,3.49,CCCCc1cccnn1
18,0.28,NC1=NS(=O)(=O)Nc2nc[nH]c21
19,4.68,Cc1cccc(NCCS)c1
20,11.2,CCC(C)(C)N(C)C(C)C
21,6.87,O=C([O-])CN(CC(=O)[O-])Cc1nc2ccccc2[nH]1

row,Compound,pKa
1,CC(C)(C)NC[C@H](O)COc1nsnc1N1CCOCC1,9.7
2,CN1[C@@H]2CC[C@H]1C[C@@H](O)C2,9.86
3,C#C[C@]1(O)C[C@@H](C)N(C)[C@@H]2CCCC[C@H]21,9.53
4,CC1=C(CC(C)[NH2+]CC(O)c2ccc(N)cc2)CCC1(C)C (stereo not drawn),3.69
